Experimental data published in US9932637B2, “Genetic polymorphisms associated with cardiovascular disorders and drug response, methods of detection and uses thereof” (CELERA CORPORATION, priority 2003, dated 2018).

System: patients with prior myocardial infarction (CARE study)
Test: CARE: association of SNPs with pravastatin treatment in cardiovascular events prevention (logistic regression, odds ratio pravastatin vs placebo by genotype; Table 8)
Assay type: in vivo, human
Description: In order to identify genetic markers associated with acute coronary events (e.g. MI, stroke, unstable angina, congestive heart failure, etc.) or response to statin treatment for the prevention of coronary events, samples from the Cholesterol and Recurrent Events (CARE) study (a randomized multicentral double-blinded trial on secondary prevention of acute coronary events with pravastatin) (Sacks et al., 1991, Am. J. Cardiol. 68: 1436-1446) were genotyped. A well-documented myocardial infarction (MI) was one of the enrollment criteria for entry into the CARE study. Patients were enrolled in the CARE trial from 80 participating study centers. […] Patients were randomized to receive either 40 mg of pravastatin once daily or a matching placebo. The primary endpoint of the trial was death from coronary heart disease and the median duration of follow-up was 5.0 years (range, 4.0 to 6.2 years). […] Secondary endpoints of other related cardiovascular or metabolic disease events, and changes in clinical variables were also recorded in pravastatin-treated and placebo groups. All individuals included in the study had signed a written informed consent form and the study protocol was approved by the respective Institutional Review Boards (IRBs).
For genotyping SNPs in CARE patient samples, DNA was extracted from blood samples using conventional DNA extraction methods such as the QIA-amp kit from Qiagen. Genotypes were obtained on an ABI PRISM® 7900HT Sequence Detection PCR system (Applied Biosystems, Foster City, Calif.) by kinetic allele-specific PCR, similar to the method described by Germer et al. (Germer S., Holland M. J., Higuchi R. 2000, Genome Res. 10: 258-266).
Statistical analysis for association of SNPs with pravastatin treatment in cardiovascular events prevention (Table 8) was carried out using an overall logistic regression model that included an intercept, a parameter for the effect of a genotype containing two rare alleles versus a genotype containing no rare alleles, a parameter for the effect of a genotype containing one rare allele versus a genotype containing no rare alleles, a parameter for the effect of use of pravastatin versus the use of placebo, and parameters for the interaction effects between SNP genotypes and pravastatin use. The test of the overall model is a chi-square test with two degrees of freedom for analyses containing all three genotypes, and one degree of freedom for analyses containing two genotypes.
Effect sizes were estimated through odds ratios (pravastatin group versus placebo) for carriers of each genotype (groups of 0, 1, and 2 minor allele carriers). The effect was considered to be significant if p-value for testing whether any of the interactions between SNP genotypes and pravastatin use were <0.05. […] Odds ratios less than one indicate that the specific SNP allele has a protective effect and odds ratios greater than one indicate that the specific SNP allele has an adverse effect.

[1] = CXCL16 hCV8718197, All Patients, Cardiovascular Mortality
[2] = CXCL16 hCV8718197, All Patients, Coronary Artery Bypass or Revascularization
[3] = CXCL16 hCV8718197, All Patients, Fatal Atherosclerotic Cardiovascular Disease
[4] = CXCL16 hCV8718197, All Patients, Fatal CHD/Definite Non-fatal MI
[5] = CXCL16 hCV8718197, All Patients, Fatal/Non-fatal MI (def & prob)
[6] = CXCL16 hCV8718197, All Patients, Hosp. for Cardiovascular Disease
[7] = CXCL16 hCV8718197, All Patients, Total Cardiovascular Disease Events
[8] = CXCL16 hCV8718197, All Patients, Total Coronary Heart Disease
[9] = CYP4F2 hCV16179493, All Patients, 0 Rare Alleles, Prava arm
[10] = CYP4F2 hCV16179493, All Patients, 1 Rare Allele, Prava arm
[11] = CYP4F2 hCV16179493, All Patients, 2 Rare Alleles, Prava arm
[12] = ELN hCV1253630, All Patients, 0 Rare Alleles, Prava, n/total 45/543

**Q.** How did the “Fatal Atherosclerotic Cardiovascular Disease, n/total (%)” value (CXCL16 hCV8718197, All Patients, 2 Rare Alleles, Prava, n/total 19/292) turn out when `CC[C@H](C)C(=O)O[C@H]1C[C@H](O)C=C2C=C[C@H](C)[C@H](CC[C@@H](O)C[C@@H](O)CC(=O)O)[C@H]21` [pravastatin] was run?
**A.** Its value is “(6.5%)”.

**Q.** What about the “Fatal CHD/Definite Non-fatal MI, n/total (%)” value (CXCL16 hCV8718197, All Patients, 2 Rare Alleles, Prava, n/total 34/292) of the same compound?
**A.** The value was “(11.6%)”.

**Q.** And the “Fatal/Non-fatal MI (def & prob), n/total (%)” value (from here on “Fatal/Non-fatal MI … (%)”) (CXCL16 hCV8718197, All Patients, 2 Rare Alleles, Prava, n/total 36/292)?
**A.** The value was “(12.3%)”.

**Q.** And the “Coronary Artery Bypass or Revascularization, n/total (%)” value (CXCL16 hCV8718197, All Patients, 2 Rare Alleles, Prava, n/total 43/292)?
**A.** Its value is “(14.7%)”.

**Q.** What about the “Total Coronary Heart Disease Events, n/total (%)” value (CXCL16 hCV8718197, All Patients, 2 Rare Alleles, Prava, n/total 94/292) of the same compound?
**A.** Its value is “(32.2%)”.

**Q.** And the “Hosp. for Cardiovascular Disease, n/total (%)” value (CXCL16 hCV8718197, All Patients, 2 Rare Alleles, Prava, n/total 124/292)?
**A.** Its value is “(42.5%)”.

**Q.** And the “Total Cardiovascular Disease Events, n/total (%)” value (CXCL16 hCV8718197, All Patients, 2 Rare Alleles, Prava, n/total 130/292)?
**A.** Its value is “(44.5%)”.

**Q.** And the “Prava vs. Placebo Odds Ratio, 0 Rare Alleles” value [1]?
**A.** Its value is 0.45.

**Q.** And the “Prava vs. Placebo Odds Ratio, 1 Rare Alleles” value [1]?
**A.** Its value is 0.80.

**Q.** And the “Prava vs. Placebo Odds Ratio, 2 Rare Alleles” value [1]?
**A.** Its value is 2.08.

**Q.** What about the “Prava vs. Placebo Odds Ratio, 0 Rare Alleles” value [2] of the same compound?
**A.** Its value is 0.45.

**Q.** What about the “Prava vs. Placebo Odds Ratio, 1 Rare Alleles” value [2] of the same compound?
**A.** The value was 0.93.

**Q.** And the “Prava vs. Placebo Odds Ratio, 2 Rare Alleles” value [2]?
**A.** Its value is 0.70.

**Q.** What about the “Prava vs. Placebo Odds Ratio, 0 Rare Alleles” value [3] of the same compound?
**A.** The value was 0.45.

**Q.** What about the “Prava vs. Placebo Odds Ratio, 1 Rare Alleles” value [3] of the same compound?
**A.** The value was 0.76.

**Q.** And the “Prava vs. Placebo Odds Ratio, 2 Rare Alleles” value [3]?
**A.** The value was 2.08.

**Q.** What about the “Prava vs. Placebo Odds Ratio, 0 Rare Alleles” value [4] of the same compound?
**A.** The value was 0.44.

**Q.** What about the “Prava vs. Placebo Odds Ratio, 1 Rare Alleles” value [4] of the same compound?
**A.** The value was 0.82.

**Q.** And the “Prava vs. Placebo Odds Ratio, 2 Rare Alleles” value [4]?
**A.** The value was 1.05.

**Q.** And the “Prava vs. Placebo Odds Ratio, 0 Rare Alleles” value [5]?
**A.** The value was 0.38.

**Q.** And the “Prava vs. Placebo Odds Ratio, 1 Rare Alleles” value [5]?
**A.** Its value is 0.80.

**Q.** And the “Prava vs. Placebo Odds Ratio, 2 Rare Alleles” value [5]?
**A.** Its value is 0.92.

**Q.** What about the “Prava vs. Placebo Odds Ratio, 0 Rare Alleles” value [6] of the same compound?
**A.** The value was 0.59.

**Q.** What about the “Prava vs. Placebo Odds Ratio, 1 Rare Alleles” value [6] of the same compound?
**A.** Its value is 0.89.

**Q.** And the “Prava vs. Placebo Odds Ratio, 2 Rare Alleles” value [6]?
**A.** Its value is 0.80.

**Q.** What about the “Prava vs. Placebo Odds Ratio, 0 Rare Alleles” value [7] of the same compound?
**A.** Its value is 0.56.

**Q.** What about the “Prava vs. Placebo Odds Ratio, 1 Rare Alleles” value [7] of the same compound?
**A.** The value was 0.90.

**Q.** And the “Prava vs. Placebo Odds Ratio, 2 Rare Alleles” value [7]?
**A.** Its value is 0.81.

**Q.** And the “Prava vs. Placebo Odds Ratio, 0 Rare Alleles” value [8]?
**A.** The value was 0.57.

**Q.** And the “Prava vs. Placebo Odds Ratio, 1 Rare Alleles” value [8]?
**A.** The value was 0.92.

**Q.** What about the “Prava vs. Placebo Odds Ratio, 2 Rare Alleles” value [8] of the same compound?
**A.** Its value is 0.82.

**Q.** What about the “Cardiovascular Mortality, n/total (%)” value [9] of the same compound?
**A.** Its value is “(3.3%)”.

**Q.** What about the “Catheterization, n/total (%)” value [9] of the same compound?
**A.** Its value is “(10.5%)”.

**Q.** And the “Fatal Atherosclerotic Cardiovascular Disease, n/total (%)” value [9]?
**A.** The value was “(3.2%)”.

**Q.** And the “Fatal Coronary Heart Disease, n/total (%)” value [9]?
**A.** The value was “(2.5%)”.

**Q.** And the “Total Mortality, n/total (%)” value [9]?
**A.** The value was “(4.7%)”.

**Q.** And the “Cardiovascular Mortality, n/total (%)” value [10]?
**A.** Its value is “(4.4%)”.

**Q.** What about the “Catheterization, n/total (%)” value [10] of the same compound?
**A.** The value was “(8.6%)”.

**Q.** What about the “Fatal Atherosclerotic Cardiovascular Disease, n/total (%)” value [10] of the same compound?
**A.** Its value is “(4.4%)”.

**Q.** What about the “Fatal Coronary Heart Disease, n/total (%)” value [10] of the same compound?
**A.** Its value is “(4.2%)”.

**Q.** What about the “Total Mortality, n/total (%)” value [10] of the same compound?
**A.** The value was “(6.6%)”.

**Q.** And the “Cardiovascular Mortality, n/total (%)” value [11]?
**A.** The value was “(2.1%)”.

**Q.** And the “Catheterization, n/total (%)” value [11]?
**A.** The value was “(16.7%)”.

**Q.** What about the “Fatal Atherosclerotic Cardiovascular Disease, n/total (%)” value [11] of the same compound?
**A.** The value was “(2.1%)”.

**Q.** And the “Fatal Coronary Heart Disease, n/total (%)” value [11]?
**A.** The value was “(2.1%)”.

**Q.** And the “Total Mortality, n/total (%)” value [11]?
**A.** Its value is “(4.2%)”.

**Q.** And the “Non-fatal MI (def & prob), n/total (%)” value (ELN hCV1253630, All Patients, 0 Rare Alleles, Prava, n/total 42/543)?
**A.** The value was “(7.7%)”.

**Q.** What about the “Fatal CHD/Definite Non-fatal MI, n/total (%)” value [12] of the same compound?
**A.** The value was “(8.3%)”.

**Q.** What about the “Fatal/Non-fatal MI … (%)” value [12] of the same compound?
**A.** Its value is “(8.3%)”.

**Q.** And the “Total Coronary Heart Disease Events, n/total (%)” value (ELN hCV1253630, All Patients, 0 Rare Alleles, Prava, n/total 146/543)?
**A.** The value was “(26.9%)”.

**Q.** And the “Hosp. for Cardiovascular Disease, n/total (%)” value (ELN hCV1253630, All Patients, 0 Rare Alleles, Prava, n/total 204/543)?
**A.** Its value is “(37.6%)”.

**Q.** What about the “Total Cardiovascular Disease Events, n/total (%)” value (ELN hCV1253630, All Patients, 0 Rare Alleles, Prava, n/total 212/543) of the same compound?
**A.** Its value is “(39.0%)”.

**Q.** And the “Non-fatal MI (def & prob), n/total (%)” value (ELN hCV1253630, All Patients, 1 Rare Allele, Prava, n/total 62/724)?
**A.** Its value is “(8.6%)”.

**Q.** And the “Fatal CHD/Definite Non-fatal MI, n/total (%)” value (ELN hCV1253630, All Patients, 1 Rare Allele, Prava, n/total 65/724)?
**A.** The value was “(9.0%)”.

**Q.** And the “Fatal/Non-fatal MI … (%)” value (ELN hCV1253630, All Patients, 1 Rare Allele, Prava, n/total 68/724)?
**A.** Its value is “(9.4%)”.

**Q.** And the “Total Coronary Heart Disease Events, n/total (%)” value (ELN hCV1253630, All Patients, 1 Rare Allele, Prava, n/total 206/724)?
**A.** Its value is “(28.5%)”.

**Q.** And the “Hosp. for Cardiovascular Disease, n/total (%)” value (ELN hCV1253630, All Patients, 1 Rare Allele, Prava, n/total 291/724)?
**A.** The value was “(40.2%)”.

**Q.** What about the “Total Cardiovascular Disease Events, n/total (%)” value (ELN hCV1253630, All Patients, 1 Rare Allele, Prava, n/total 298/724) of the same compound?
**A.** The value was “(41.2%)”.
